PMC3781034, “A Small-Animal Pharmacokinetic/Pharmacodynamic PET Study of Central Serotonin 1A Receptor Occupancy by a Potential Therapeutic Agent for Overactive Bladder” (PLoS ONE, 2013)
Read-outs that look alike come from different tables or passages of the source.

Columns and labels:
[1] = system: 5-HT1A receptors; experiment: [35S]guanosine-5'-O-(3-thio)-triphosphate binding studies; assay type: biochemical; settings: stated in introduction, no data shown
[2] = PK study in rats (oral); assay type: in vivo; settings: Sprague-Dawley, rat, plasma, 1 mg/kg oral; for AUC(0-t): read-out: AUC0-8hr
Experimental: E2110 was administered orally to male and female SD rats, (4 animals/sex) at a dose of 1 mg/kg. Blood samples were collected from the jugular veins by heparinized syringes at 0.25, 0.5, 1, 2, 4, 6, and 8 hours after dosing.
Concentrations of E2110 were determined in plasma or PBS by liquid chromatography - tandem mass spectrometry. Samples (5 µL) were injected into an L-column ODS (35 × 2.1 mm; 5 µM, Chemical Evaluation and Research Institute, Tokyo, Japan) with a flow rate of 0.6 mL/min. We used 0.1% formic acid in water and acetonitrile as mobile phase A and B, respectively. The gradient elution started with a gradient from 0% to 100% mobile phase B for 2 min, then 1 min of 100% B, followed by a gradient of 100% to 0% for 0.01 min at the end, at a flow rate of 0.6 ml/min. The mass spectrometer (Quattro Ultima-Pt; Micromass, Waters Ltd., Manchester, UK) was operated in a positive ion multiple reaction monitoring mode. E2110 was monitored using mass transitions of 490.4/459.2. Tamsulosin was used as an internal standard, and was monitored using a mass transition of 409.3/200.0. The lower limit of quantification of E2110 in plasma was 0.5 ng/mL.

[3] = Protein binding of E2110 in rat plasma (equilibrium dialysis); assay type: in vitro ADME
Experimental: The in vitro unbound fraction of […] in male SD rat plasma was quantified by equilibrium dialysis. One mL of the […] spiked sample (100, 1000 and 10000 ng/mL) and phosphate buffered saline (PBS) were applied to one and the other chambers of a dialysis cell, respectively. The cartridge was incubated in a water bath for 24 hr at 37°C. After incubation, aliquots were sampled from both chambers and submitted to determination of the concentration of […] in each matrix by liquid chromatography-tandem mass spectrometry. Unbound fractions for each compound were calculated as the ratio of […] concentration from the PBS side to that from the plasma side of the dialysis apparatus. Concentrations of […] were determined in plasma or PBS by liquid chromatography - tandem mass spectrometry. Samples (5 μL) were injected into an L-column ODS (35 × 2.1 mm; 5 μM, Chemical Evaluation and Research Institute, Tokyo, Japan) with a flow rate of 0.6 mL/min. We used 0.1% formic acid in water and acetonitrile as mobile phase A and B, respectively. […] […] was monitored using mass transitions of 490.4/459.2. Tamsulosin was used as an internal standard, and was monitored using a mass transition of 409.3/200.0. The lower limit of quantification of […] in plasma was 0.5 ng/mL.

CNC(=O)c1ccc2ccn(C3CCN(CCc4c(OC)ccc5c4OC(C)(C)CC5=O)CC3)c2c1.O=C(O)/C=C/C(=O)O [E2110, 1-{1-[2-(7-Methoxy-2,2-dimethyl-4-oxochroman-8-yl)ethyl]piperidine-4-yl}-N-methyl-1H-indole-6-carboxamide fumarate]
functional character at 5-HT1A receptors [1]: full antagonist | Cmax ([2]; Female SD): 126 ng/mL | Tmax ([2]; Female SD): 1 h | half-life ([2]; Female SD): 2.6 h | AUC(0-t) ([2]; Female SD): 488 ng·h/mL | Cmax ([2]; Male SD): 48.1 ng/mL | Tmax ([2]; Male SD): 0.5 h | half-life ([2]; Male SD): 1.5 h | AUC(0-t) ([2]; Male SD): 71.8 ng·h/mL | concentration dependence of binding to plasma proteins ([3]; at 0.1, 1 µM): not dependent on its concentration | average percentage of protein-unbound E2110 in plasma ([3]; male SD rat plasma, equilibrium dialysis 24 hr 37°C): 6%
